Data set [1] relates to HepG2. Nature of the data set: Hypoglycemic activity in human HepG2 cells assessed as increase in glucose consumption at 5 ug/ml after 48 hrs relative to BBR. The data set is classed as functional.
The test system of data set [2] is HepG2. The experiment in a line: Hypoglycemic activity in human HepG2 cells assessed as increase in glucose consumption after 48 hrs. In kind it is functional, cell-based.
Data set [3] relates to HepG2. Nature of the data set: Cytotoxicity against human HepG2 cells assessed as reduction in cell viability after 48 hrs by MTT assay. In kind it is cell-based. The conditions noted are these: for IC50: Homo sapiens, HepG2, 48 h; for Activity: human, hepg2, 48 h. A general note: Tetrazolium dyes change colour on reduction, which living cells bring about.
Data set [4] relates to HepG2. The experiment in a line: Hypoglycemic activity in human HepG2 cells assessed as increase in glucose consumption at 5 ug/ml after 48 hrs relative to control. In kind it is functional.
Data set [5] in a line: Ratio of compound IC50 to BBR IC50 for cytotoxicity against human HepG2 cells. In kind it is cell-based. As to conditions: read-out: Ratio IC50.
In data set [6] the test system is HepG2. Nature of the data set: Cytotoxicity against human HepG2 cells assessed as reduction in cell viability at 125 ug/ml after 48 hrs by MTT assay. In kind it is cell-based. As to conditions: hepg2, 48 h.

The structures appear in SMILES notation.

In general, IC50 refers to the concentration that gives 50% inhibition.

Take `COc1ccc2cc3[n+](cc2c1OC(=O)c1ccc(OC(C)=O)cc1)CCc1cc2c(cc1-3)OCO2.[Cl-]`: the Activity in the data set with HepG2 [1] is -9.6%; in the data set on HepG2 [2], “Dose-dependent effect”; in the data set on HepG2 [3], “Dose-dependent effect”; in the data set with HepG2 [4] it was 31.7%. In addition, the IC50 in the data set on HepG2 [3] came out at 42.9 µg/mL.
As to `COc1ccc2cc3[n+](cc2c1OC(=O)c1ccccc1)CCc1cc2c(cc1-3)OCO2.[Cl-]`, the Activity was -3.9% in the data set on HepG2 [1], “Dose-dependent effect” in the data set on HepG2 [2], “Dose-dependent effect” in the data set on HepG2 [3] and 40% in the data set on HepG2 [4]. Moreover, in the data set on HepG2 [3], the IC50 turned out to be 65.9 µg/mL.
For `CN(C)C(=N)NC(=N)N` [METFORMIN], the Activity in the data set with HepG2 [1] is -17.6%; with HepG2 [4] it was 20%.
With `COc1ccc2cc3[n+](cc2c1OC(=O)c1cccnc1)CCc1cc2c(cc1-3)OCO2.[Cl-]`, the Activity in the data set on HepG2 [1] is 0%; with HepG2 [2], “Dose-dependent effect”; with HepG2 [3], “Dose-dependent effect”; in the data set with HepG2 [4] it was 45.7%. The IC50 in the data set on HepG2 [3] came to 72.1 µg/mL.
For `COc1ccc2cc3[n+](cc2c1OC(=O)/C=C/c1ccccc1)CCc1cc2c(cc1-3)OCO2.[Cl-]`, the Activity was 33.6% in the data set on HepG2 [1], “Dose-dependent effect” with HepG2 [2], “Dose-dependent effect” in the data set with HepG2 [3] and 94.5% in the data set with HepG2 [4]. In addition, the half-inhibitory concentration (IC50) in the data set with HepG2 [3] was determined as 52.3 µg/mL.
In the case of `COc1ccc2cc3[n+](cc2c1OC(=O)c1ccccc1[N+](=O)[O-])CCc1cc2c(cc1-3)OCO2.[Cl-]`, the Activity in the data set with HepG2 [1] was -8.1%; with HepG2 [2], “Dose-dependent effect”; with HepG2 [3], “Dose-dependent effect”; with HepG2 [4] it was 33.8%. Further, the IC50 with HepG2 [3] was 46.9 µg/mL.
For the compound `COc1ccc2cc3[n+](cc2c1OC(=O)c1ccncc1)CCc1cc2c(cc1-3)OCO2.[Cl-]`, the Activity is -10.6% with HepG2 [1], “Dose-dependent effect” with HepG2 [2], “Dose-dependent effect” in the data set on HepG2 [3] and 30.2% in the data set with HepG2 [4]. In the data set with HepG2 [3], the half-inhibitory concentration (IC50) came to 82.5 µg/mL.
Consider `COc1cc(/C=C/C(=O)Oc2c(OC)ccc3cc4[n+](cc23)CCc2cc3c(cc2-4)OCO3)ccc1OC(=O)c1cccnc1.[Cl-]`, for which the Activity is -16.3% in the data set with HepG2 [1]; “Dose-dependent effect” in the data set on HepG2 [2]; “Dose-dependent effect” with HepG2 [3]; “Non-Toxic” in the data set with HepG2 [6]; 21.8% in the data set on HepG2 [4]. Besides, in data set [5], the selectivity ratio was 1.95. The IC50 with HepG2 [3] worked out at 91.5 µg/mL.
With `COc1ccc2cc3[n+](cc2c1OC(=O)c1cccc([N+](=O)[O-])c1)CCc1cc2c(cc1-3)OCO2.[Cl-]`, the Activity with HepG2 [1] is -12.1%; with HepG2 [2], “Dose-dependent effect”; in the data set on HepG2 [3] it was “Dose-dependent effect”; in the data set with HepG2 [4], 28%. For the same compound, in the data set with HepG2 [3], the IC50 was 27.9 µg/mL.
For `COc1ccc2cc3[n+](cc2c1OC)CCc1cc2c(cc1-3)OCO2` [BERBERINE], the IC50 with HepG2 [3] was found to be 46.9 µg/mL. The Activity entry is recorded as “Dose-dependent effect” in the data set on HepG2 [3], “Toxic” with HepG2 [6] and 45.6% in the data set on HepG2 [4].
`COc1ccc2cc3[n+](cc2c1OC(=O)c1ccccn1)CCc1cc2c(cc1-3)OCO2.[Cl-]`: the Activity is 4.2% in the data set on HepG2 [1], “Dose-dependent effect” in the data set on HepG2 [2], “Dose-dependent effect” in the data set on HepG2 [3] and 51.7% in the data set on HepG2 [4]. Also, the IC50 with HepG2 [3] came out at 41.6 µg/mL.
`COc1cc(/C=C/C(=O)Oc2c(OC)ccc3cc4[n+](cc23)CCc2cc3c(cc2-4)OCO3)ccc1OC(C)=O.[Cl-]`: the Activity in the data set on HepG2 [1] is 27.4%; in the data set on HepG2 [2], “Dose-dependent effect”; with HepG2 [3] it was “Dose-dependent effect”; in the data set with HepG2 [4], 85.5%. Besides, the selectivity ratio in data set [5] turned out to be 1.57. In the data set with HepG2 [3], the IC50 is 73.5 µg/mL.
`COc1ccc2cc3[n+](cc2c1OC(=O)c1ccc([N+](=O)[O-])cc1)CCc1cc2c(cc1-3)OCO2.[Cl-]`: the Activity in the data set on HepG2 [1] was -15.9%; with HepG2 [2] it was “Dose-dependent effect”; in the data set on HepG2 [3], “Dose-dependent effect”; in the data set with HepG2 [4] it was 22.4%. For the same compound, the IC50 with HepG2 [3] was 37.9 µg/mL.

The values above are taken from ChEMBL document CHEMBL4431369, “Synthesis and hypoglycemic activity of 9-O-(lipophilic group substituted) berberine derivatives” (Bioorg Med Chem Lett, 2016).
